Source: US6479435B1, “Diaryl ethers and processes for their preparation and herbicidal and desiccant compositions containing them” (ISK Americas Incorporated, priority 1997, dated 2002)

Tests used:
Assay type in all cases: in vivo
[1] = tested on: common ragweed (Ambrosia artemisiifolia L., AMBEL); test: Post-emerge greenhouse herbicide test, phytotoxicity rating; details: 14 days after application
In short: (§1)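 Scores use a 0 (no damage) to 100 (complete kill) scale, taken 14 days after a foliar spray. Acetone solutions with 0.25% v/v non-ionic surfactant were applied by track sprayer at 187 l/ha and 63-1000 g ai/ha to bottom-watered 2-3 leaf plants.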

[2] = tested on: upland rice (Oryza sp., var.Tebonnet, RICE); test: Pre-emerge greenhouse test, crop damage rating; details: 14 days after application, rating scale 0-100
In short: (§2)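 Visual 0–100 injury rating (100 = all plants dead) taken 14 days after treatment. Rates of 125–1000 g ai/ha in acetone, 187 l/ha, were sprayed onto soil one day post-sowing; pots were surface-watered to incorporate, then bottom-watered.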

[3] = tested on: field corn (Zea mays L., var. Dekalb 535, CORN); test: Pre-emerge greenhouse test, crop damage rating; details: 14 days after application, rating scale 0-100
In short: as §2

[4] = tested on: lambsquarters (Chenopodium album, CHEAL); test: Post-emerge greenhouse herbicide test, phytotoxicity rating; details: 14 days after application
In short: as §1

[5] = tested on: barnyardgrass (Echinochloa crusgalli, ECHCG); test: as above; details: 14 days after application
In short: as §1

[6] = tested on: ivyleaf morningglory (Ipomoea hederacea, IPOHE); test: as above; details: 14 days after application
In short: as §1

[7] = tested on: velvetleaf (Abutilon theophrasti, ABUTH); test: as above; details: 14 days after application
In short: as §1

[8] = tested on: green foxtail (Setaria viridis, SETVI); test: as above; details: 14 days after application
In short: as §1

[9] = tested on: large crabgrass (Digitaria sanguinalis, DIGSA); test: as above; details: 14 days after application
In short: as §1

[10] = tested on: Johnsongrass (Sorghum halepense, SORHA); test: as above; details: 14 days after application
In short: as §1

[11] = tested on: redroot pigweed (Amaranthus retroflexus, AMARE); test: as above; details: 14 days after application
In short: as §1

[12] = tested on: lambsquarters (Chenopodium album, CHEAL); test: Pre-emerge greenhouse herbicide test, phytotoxicity rating; details: 14 days after application, rating scale 0-100
In short: as §2

[13] = tested on: common ragweed (Ambrosia artemisiifolia L., AMBEL); test: as above; details: 14 days after application, rating scale 0-100
In short: as §2

[14] = tested on: barnyardgrass (Echinochloa crusgalli, ECHCG); test: as above; details: 14 days after application, rating scale 0-100
In short: as §2

[15] = tested on: ivyleaf morningglory (Ipomoea hederacea, IPOHE); test: as above; details: 14 days after application, rating scale 0-100
In short: as §2

[16] = tested on: velvetleaf (Abutilon theophrasti, ABUTH); test: as above; details: 14 days after application, rating scale 0-100
In short: as §2

[17] = tested on: green foxtail (Setaria viridis, SETVI); test: as above; details: 14 days after application, rating scale 0-100
In short: as §2

[18] = tested on: large crabgrass (Digitaria sanguinalis, DIGSA); test: as above; details: 14 days after application, rating scale 0-100
In short: as §2

[19] = tested on: Johnsongrass (Sorghum halepense, SORHA); test: as above; details: 14 days after application, rating scale 0-100
In short: as §2

[20] = tested on: redroot pigweed (Amaranthus retroflexus, AMARE); test: as above; details: 14 days after application, rating scale 0-100
In short: as §2

[21] = tested on: sicklepod (Cassia obtusifolia, CASOB); test: as above; details: 14 days after application, rating scale 0-100
In short: as §2

[22] = tested on: upland rice (Oryza sp., var.Tebonnet, RICE); test: Post-emerge greenhouse test, crop damage rating; details: 14 days after application
In short: as §1

[23] = tested on: field corn (Zea mays L., var. Dekalb 535, CORN); test: Post-emerge greenhouse test, crop damage rating; details: 14 days after application
In short: as §1

[24] = tested on: soybean (Glycine max L., var. Pella 86, SOY); test: Post-emerge greenhouse test, crop damage rating; details: 14 days after application
In short: as §1

[25] = tested on: soybean (Glycine max L., var. Pella 86, SOY); test: Pre-emerge greenhouse test, crop damage rating; details: 14 days after application, rating scale 0-100
In short: as §2

Compound: Cn1nc(-c2cc(Oc3ncccc3C(F)(F)F)c(Cl)cc2F)c(Cl)c1C(F)(F)F [Compound 1-2]
- AMBEL phytotoxicity rating (0-100) ([1]; 63 g al/ha): 30
- AMBEL phytotoxicity rating (0-100) ([1]; 500 g al/ha): 90
- crop damage rating RICE ([2]; 125 g ai/ha): 30
- crop damage rating RICE ([2]; 500 g ai/ha): 40
- crop damage rating CORN ([3]; 125 g ai/ha): 10
- crop damage rating CORN ([3]; 500 g ai/ha): 90
- CHEAL phytotoxicity rating (0-100) ([4]; 63 g al/ha): 70
- CHEAL phytotoxicity rating (0-100) ([4]; 500 g al/ha): 100
- ECHCG phytotoxicity rating (0-100) ([5]; 63 g al/ha): 0
- ECHCG phytotoxicity rating (0-100) ([5]; 500 g al/ha): 80
- IPOHE phytotoxicity rating (0-100) ([6]; 63 g al/ha): 30
- IPOHE phytotoxicity rating (0-100) ([6]; 500 g al/ha): 90
- ABUTH phytotoxicity rating (0-100) ([7]; 63 g al/ha): 30
- ABUTH phytotoxicity rating (0-100) ([7]; 500 g al/ha): 100
- SETVI phytotoxicity rating (0-100) ([8]; 63 g al/ha): 0
- SETVI phytotoxicity rating (0-100) ([8]; 500 g al/ha): 40
- DIGSA phytotoxicity rating (0-100) ([9]; 63 g al/ha): 0
- DIGSA phytotoxicity rating (0-100) ([9]; 500 g al/ha): 50
- SORHA phytotoxicity rating (0-100) ([10]; 63 g al/ha): 20
- SORHA phytotoxicity rating (0-100) ([10]; 500 g al/ha): 40
- AMARE phytotoxicity rating (0-100) ([11]; 63 g al/ha): 80
- AMARE phytotoxicity rating (0-100) ([11]; 500 g al/ha): 100
- phytotoxicity rating CHEAL ([12]; 125 g ai/ha): 50
- phytotoxicity rating CHEAL ([12]; 500 g ai/ha): 99
- phytotoxicity rating AMBEL ([13]; 125 g ai/ha): 80
- phytotoxicity rating AMBEL ([13]; 500 g ai/ha): 80
- phytotoxicity rating ECHCG ([14]; 125 g ai/ha): 20
- phytotoxicity rating ECHCG ([14]; 500 g ai/ha): 50
- phytotoxicity rating IPOHE ([15]; 125 g ai/ha): 0
- phytotoxicity rating IPOHE ([15]; 500 g ai/ha): 60
- phytotoxicity rating ABUTH ([16]; 125 g ai/ha): 0
- phytotoxicity rating ABUTH ([16]; 500 g ai/ha): 70
- phytotoxicity rating SETVI ([17]; 125 g ai/ha): 90
- phytotoxicity rating SETVI ([17]; 500 g ai/ha): 99
- phytotoxicity rating DIGSA ([18]; 125 g ai/ha): 40
- phytotoxicity rating DIGSA ([18]; 500 g ai/ha): 95
- phytotoxicity rating SORHA ([19]; 125 g ai/ha): 30
- phytotoxicity rating SORHA ([19]; 500 g ai/ha): 50
- phytotoxicity rating AMARE ([20]; 125 g ai/ha): 80
- phytotoxicity rating AMARE ([20]; 500 g ai/ha): 100
- phytotoxicity rating CASOB ([21]; 125 g ai/ha): 80
- phytotoxicity rating CASOB ([21]; 500 g ai/ha): 0
- RICE crop damage rating (0-100) ([22]; 63 g al/ha): 0
- RICE crop damage rating (0-100) ([22]; 500 g al/ha): 0
- CORN crop damage rating (0-100) ([23]; 63 g al/ha): 0
- CORN crop damage rating (0-100) ([23]; 500 g al/ha): 10
- SOY crop damage rating (0-100) ([24]; 63 g al/ha): 10
- SOY crop damage rating (0-100) ([24]; 500 g al/ha): 50
- crop damage rating SOY ([25]; 125 g ai/ha): 0
- crop damage rating SOY ([25]; 500 g ai/ha): 10
